The test system of assay [1] is L6. Nature of the assay: Induction of mitochondrial uncoupling in rat L6 cells assessed as stimulation of cellular oxygen consumption relative to control. Format: functional.
In assay [2] the test system is L6. Nature of the assay: Induction of mitochondrial uncoupling in rat L6 cells assessed as stimulation of cellular oxygen consumption. Format: functional, cell-based.
The mark [3] stands for this setting: Rattus norvegicus, L6, read-out: EC50.

As to `Clc1ccc(Nc2nc3nonc3nc2Nc2ccc(Cl)cc2)cc1`, in assay [1], the “%max” value is given as 190.4%. Besides, in assay [2] (setting [3]), the EC50 is 270 nM.
Turning to `FC(F)(F)CONc1nc2nonc2nc1NOCC(F)(F)F`, the “%max” value in assay [1] came out at 96.3%. Further, the EC50 entry in assay [2] (l6) is reported as “ND(Insoluble)”.
With `c1ccc(Oc2nc3nonc3nc2Oc2ccccc2)cc1`, the “%max” value in assay [1] amounted to 98.3%. In addition, the EC50 result in assay [2] (l6) is given as “ND(Insoluble)”.
For `CCCCCCNc1nc2nonc2nc1NCCCCCC` the same measures were 160.2% and “ND(Insoluble)”.
For `CCCCNc1nc2nonc2nc1NCCCC` the same measures were 116% and “ND(Insoluble)”.
For `Fc1ccccc1Oc1nc2nonc2nc1Oc1ccccc1F` the same measures were 93% and “ND(Insoluble)”.
`Fc1ccc(Nc2nc3nonc3nc2Nc2ccc(F)cc2)cc1`: the “%max” value in assay [1] was found to be 204%. Besides, the EC50 in assay [2] (setting [3]) is 460 nM.
For `c1ccc(Nc2nc3nonc3nc2Nc2ccccn2)nc1`, in assay [2] (l6), the EC50 entry is given as “ND(Insoluble)”.
On to `CCCNc1nc2nonc2nc1NCCC`, for which the “%max” value in assay [1] is 98%. In assay [2] (l6), the EC50 entry is “ND(Insoluble)”.
On the same counts, the results for `Ic1ccccc1Oc1nc2nonc2nc1Oc1ccccc1I` are 98.8% and “ND(Insoluble)”.
For `c1ccc(Nc2nc3nonc3nc2Nc2ccccc2)cc1` the same measures were 172.8% and “ND(Insoluble)”.
In the case of `Fc1cccc(Nc2nc3nonc3nc2Nc2cccc(F)c2)c1`, the “%max” value in assay [1] came to 220.8%. The EC50 in assay [2] (setting [3]) is 180 nM.
In the case of `Fc1ccc(Nc2nc3nonc3nc2Nc2ccc(F)cc2F)c(F)c1`, the “%max” value in assay [1] came out at 222.6%. In assay [2] (setting [3]), the EC50 turned out to be 40 nM.
Consider `CCONc1nc2nonc2nc1NOCC`, for which the “%max” value in assay [1] is reported as 100%. Further, the EC50 entry in assay [2] (l6) was “ND(Insoluble)”.

By EC50 is commonly meant the midpoint of the concentration-response curve.
